Results published in patent publication US10787450B2 (BRISTOL-MYERS SQUIBB COMPANY, priority 2016, dated 2020).
Like-named read-outs stand apart in the source and are kept apart here. Blank lines part the entries; values can stand above or below the molecule they belong to.

Experiments:
[1] = system: spontaneously hypertensive rat, renal hypertensive rat and deoxycortisone acetate salt hypertensive rat models; details: cited from earlier work
neointimal formation = details: rats; cited from earlier work
[2] = system: congestive heart failure in Dahl salt-sensitive rats; details: rat, in vivo; cited from earlier work
[3] = system: IL-1 beta-induced coronary stenosis; details: long term treatment; cited from earlier work
rat stroke model = details: in vivo; cited from earlier work
ROCK2 = ROCK2 (Homo sapiens (Human), UniProt O75116); test: ROCK2 kinase inhibition assay (FITC peptide substrate, LABCHIP 3000 Reader); format: biochemical; details: 5 μM ATP, 1.5 μM peptide substrate
Procedure, shortened: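 IC50 derived by curve fitting of dose-response inhibition, read as separation of phosphorylated from unphosphorylated FITC peptide (1.5 μM) after EDTA stop. Buffer: HEPES pH 7.5, MgCl2, Brij-35, DTT; ATP 5 μM; final DMSO <2%; reaction initiated by Rho kinase addition.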

Chain of ROCK2 (O75116 whole entry, species assumed): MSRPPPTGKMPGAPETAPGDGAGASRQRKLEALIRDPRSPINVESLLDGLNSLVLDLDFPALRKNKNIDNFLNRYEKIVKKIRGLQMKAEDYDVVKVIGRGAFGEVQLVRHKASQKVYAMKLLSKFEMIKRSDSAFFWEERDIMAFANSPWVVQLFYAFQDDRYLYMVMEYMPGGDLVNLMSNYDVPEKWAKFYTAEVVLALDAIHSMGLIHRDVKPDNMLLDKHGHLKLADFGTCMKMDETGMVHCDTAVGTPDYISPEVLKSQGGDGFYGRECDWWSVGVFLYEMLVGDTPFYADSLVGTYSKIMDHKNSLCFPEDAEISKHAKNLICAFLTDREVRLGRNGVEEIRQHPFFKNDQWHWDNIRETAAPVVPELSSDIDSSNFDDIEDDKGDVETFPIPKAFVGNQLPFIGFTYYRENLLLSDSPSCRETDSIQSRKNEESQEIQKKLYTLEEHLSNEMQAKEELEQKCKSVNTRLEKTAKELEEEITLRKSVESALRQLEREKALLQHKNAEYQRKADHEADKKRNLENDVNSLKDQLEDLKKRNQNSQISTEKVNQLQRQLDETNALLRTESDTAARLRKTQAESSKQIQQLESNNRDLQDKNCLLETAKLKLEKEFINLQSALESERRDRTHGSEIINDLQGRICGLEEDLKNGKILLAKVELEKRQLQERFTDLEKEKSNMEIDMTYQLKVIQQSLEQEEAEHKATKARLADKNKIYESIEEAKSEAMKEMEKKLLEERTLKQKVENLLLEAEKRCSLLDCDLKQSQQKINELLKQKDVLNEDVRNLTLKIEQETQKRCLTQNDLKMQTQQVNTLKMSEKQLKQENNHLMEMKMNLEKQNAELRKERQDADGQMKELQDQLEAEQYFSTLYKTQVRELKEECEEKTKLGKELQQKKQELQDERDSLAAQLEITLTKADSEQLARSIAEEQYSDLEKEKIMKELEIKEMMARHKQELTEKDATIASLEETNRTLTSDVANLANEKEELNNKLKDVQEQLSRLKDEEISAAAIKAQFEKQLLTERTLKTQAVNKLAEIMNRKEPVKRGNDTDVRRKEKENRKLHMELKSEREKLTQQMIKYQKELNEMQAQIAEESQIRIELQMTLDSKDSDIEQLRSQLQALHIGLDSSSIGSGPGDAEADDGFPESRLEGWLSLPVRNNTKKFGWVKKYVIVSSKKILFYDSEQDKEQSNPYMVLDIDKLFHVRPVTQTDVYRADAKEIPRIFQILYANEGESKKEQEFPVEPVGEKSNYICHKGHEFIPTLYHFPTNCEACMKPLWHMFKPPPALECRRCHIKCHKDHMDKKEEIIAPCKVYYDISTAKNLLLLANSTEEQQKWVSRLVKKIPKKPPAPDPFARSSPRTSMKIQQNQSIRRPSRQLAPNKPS

SMILES: C[C@@H](N)[C@H]1CC[C@H](C(=O)Nc2ccncc2)CC1 [Example Y-27632, Y-27632]
effect on blood pressure ([1]; control rats): only a minor effect on blood pressure
effect on blood pressure ([1]; three rat models of hypertension): significantly decrease blood pressure
neointimal formation (neointimal formation): inhibited neointimal formation
ventricular hypertrophy, fibrosis and function [2]: improve ventricular hypertrophy, fibrosis and function

SMILES: O=S(=O)(c1cccc2cnccc12)N1CCCNCC1 [fasudil]
coronary constrictive remodeling [3]: promote a regression of coronary constrictive remodeling
coronary stenosis [3]: progressively reduce coronary stenosis
infarct size and neurologic deficit (rat stroke model): reduce both the infarct size and neurologic deficit

SMILES: COc1cccc(NC2C(=O)N(c3ncc(-c4cn[nH]c4)c(OC)n3)CC23CCN(C(=O)c2cnn4ccccc24)CC3)c1 (stereo not shown) [Example 243, 2-(4-methoxy-5-(1H-pyrazol-4-yl)pyrimidin-2-yl)-4-((3-methoxyphenyl)amino)-8-(pyrazolo[1,5-a]pyridine-3-carbonyl)-2,8-diazaspiro[4.5]decan-3-one]
IC50 (ROCK2): 250 to 3000 nM

The remaining lines, values ahead:

IC50 (ROCK2): < 3 nM
SMILES: CCc1nc(N2CC3(CCN(CC(C)O)CC3)N(Cc3cccc(OC)c3)C2=O)ccc1-c1cn[nH]c1 (stereo not shown) [Example 151, 3-(6-ethyl-5-(1H-pyrazol-4-yl)pyridin-2-yl)-8-(2-hydroxypropyl)-1-(3-methoxybenzyl)-1,3,8-triazaspiro[4.5]decan-2-one]

IC50 (ROCK2): 3 to 30 nM
SMILES: O=C1N(c2ccc(-c3cn[nH]c3)cc2)CC2(CCNCC2)N1CC1CCCCC1 [Example 67]
